Three molecules from US20230295255A1, “ANNEXIN A1-DERIVED POLYPEPTIDE ANALOGUES” (Reso Ther Pharma A/S, priority 2020, published 2023) can be followed below.

The nature of data set [1]: Determination of terminal half times after intravenous injection in rats (plasma, LC/MS-MS). Also on record: species or system Male Wistar rats. The settings on record: in vivo, rat, read-out: terminal half time (t½). The protocol: Male Wistar rats (Crl:WI(Han), Charles River, Germany, weight 300 g±20 g were kept in transparent polycarbonate cages (floor area: 1500 cm^2—height: at least 21 cm) with two in each cage, males and females separated at a temperature of 21° C.±3° C. and relative humidity of 55%±15% with a 12 hours light and 12 hours darkness (Light on from 06:00 to 18:00 h). Following a minimum of five days acclimatization the animals received an intravenous injection of test item through the tail vein given over 60 seconds using a butterfly syringe with volume adjusted according to the most recent body weight data. The butterfly was flushed with 0.4 mL 0.9% NaCl immediately after injection. […]. The dose volume was 5 mL/kg body weight.
The following doses of test item was given: 0.1, 1 and 10 mg/kg in 5% glucose; 1.0 mM acetic acid. Six animals were treated on each dose level.
(§1) On the day of dosing blood samples of approximately 0.4 mL was drawn using the sublingual method. The blood was sampled into a collecting tube containing K2EDTA as anticoagulant. After collection, the collecting tube was immediately labelled and placed in ice water (sufficient to cover the blood entirely) until centrifugation. Within 20 minutes after blood sampling, blood was centrifuged for 8 minutes at 2150 G, at +4° C.). The entire plasma sample was transferred to Eppendorf microcentrifuge tubes (Polypropylene tubes with Eppendorf Safe-Lock lid, Sigma, Denmark). Within 30 minutes after centrifugation, plasma was snap frozen on dry ice and stored at −70° C. or below.
Time point for blood sampling: 2, 5, 10 and 20 min from completion of dosing.
Plasma concentration of the test item was measured by use of LC/MS-MS.

A short description of data set [2]: Determination of terminal half times after intravenous injection in beagle dogs (plasma, LC/MS-MS). The class given is in vivo. The settings on record: dog; for half-life: in vivo, intravenous, read-out: terminal half time (t½). The protocol: 6 beagle dogs, 3 males and 3 females, HsdRcc:DOBE from Marshall BioResources, F-03800 Gannat, France. Age 5-6 months, weight 6-8 kg were kept 21° C.±3° C. with relative humidity of 55%±15% with 12 hours light and 12 hours darkness (Light on from 06:00 to 18:00 h). Male and females kept separate.
Following a pre-treatment period of a minimum of two weeks the animals received an intravenous injection of test item through the cephalic vein given over 5 min using a butterfly syringe with volume adjusted according to the most recent body weight data. The butterfly was flushed with 5 ml 0.9% NaCl immediately after injection. The dose volume was 5 mL/kg body weight. One male and one female were treated at each dose level.
The following doses of test item was given: 2, 6 and 10 mg/kg in 5% glucose; 1.0 mM acetic acid. One male and one female were treated on each dose level. For the control peptide the doses given were: 1, 3 and 10 mg/kg.
as §1, with “Blood samples for determination” for “On the day”, “plasma levels of test item” for “dosing blood samples”, “mL per sample” for “mL”, “from” for “using”, “contralateral cephalic vein.” for “sublingual method.”
Plasma concentration of test item and control peptide was measured by use of LC/MS-MS.

A short description of data set [3]: Body weight and liver weight in experimental model of Nonalcoholic Steatohepatitis (HFD mice). The class given is in vivo, C57BL/6 mice. Conditions: end of 6 weeks treatment, i.p. once daily 5 days a week, AnxA1 1 mg/kg/day, Test Item A 250 μg/kg/day. The protocol:
(§2) Male C57BL/6 mice were housed (7-9/cage) in pathogen free conditions and maintained at constant room temperature (20-22° C.) with free access to water and food under a 12 h light/dark cycle (lights on at 07:00 h). […] This diet leads within 16 weeks to steatohepatitis associated with obesity and insulin resistance, which mimics what is seems in humans suffering from NASH. The control group received ad libitum normal chow for 16 weeks. The body weight for each mouse was recorded weekly by using a dedicated digital balance (each Friday afternoon—starting from 5 pm).
(§3) Mice were divided in experimental groups as below: • A: Non HFD: Time control group: Had access to standard chow diet throughout the study period • B: Vehicle: Vehicle treatment group: Received HFD+Vehicle treatment (sterile saline injections) once daily • C: AnxA1: AnnexinA1 treatment group: Received HFD+Annexin A1 full-length protein at a dose of 1 mg/kg/day. • D: Test Item A: Test compound A group: Received HDF+250 μg/kg/day of Test compound A=[…] (SEQ ID NO:4); (AnxA1 (2-46 Val24Leu).
Treatment was commended following 10 weeks HFD and was given as a once daily intraperitoneal given 5 days a week (Monday-Friday) for 6 weeks. The animals were kept on HFD during the 6 weeks treatment period. […]

Data set [4] is described as follows: Liver injury assessment: blood levels of alanine aminotransferase (ALT) in HFD NASH model. The class given is in vivo, C57BL/6 mice. The settings on record: HFD mice, after 6 weeks treatment, i.p.; AnxA1 1 mg/kg/day, Test Item A 250 μg/kg/day. The protocol: as §2
Liver injury was assessed before and after treatment with test compound, control compound or vehicle by evaluating blood levels of alanine aminotransferase (ALT) with a spectrophotometric kit. Blood sampling was carried out by retro-orbital bleeding.
Mice were divided in experimental groups as below: • A: Non HFD: Time control group: Had access to standard chow diet throughout the study period • B: Vehicle: Vehicle treatment group: Received HFD+Vehicle treatment (sterile saline injections) once daily • C: AnxA1: AnnexinA1 treatment group: Received HFD+Annexin A1 full-length protein at a dose of 1 mg/kg/day. • D: Test Item A: Test compound A group: Received HDF+250 μg/kg/day of Test compound A=[…] (SEQ ID NO:4); (AnxA1 (2-46 Val24Leu). […]

Another data set relates to TNF-α. The experiment in a line: Low grade inflammation: liver expression level of TNF-α by real time PCR in HFD NASH model. It counts as in vivo, C57BL/6 mice. The settings on record: HFD mice, AnxA1 1 mg/kg/day, Test Item A 250 μg/kg/day. Here is the method: as §2
Low inflammation in the livers was determined by the expression level of TNF-α measured by real time PCR using a commercial available tracer.
as §3
Treatment was commended following 10 weeks HFD and was given as a once daily intraperitoneal given 5 days a week (Monday-Friday) for 6 weeks. […]
On the technique in general: Real-time PCR tracks product formation cycle by cycle.

Ends that are not written are not given here.

As to “AMVSEFLKQAWFIENEEQEYVQTLKSSKGGPGSAVSPYPTFNPSS [Test Item A]”, the half-life was found to be 3.18 min in data set [1] (0.1 mg/kg); 2.87 min in data set [1] (1 mg/kg); 5.85 min in data set [1] (10 mg/kg); 9.16 min in data set [2] (2 mg/kg); 19.8 min in data set [2] (6 mg/kg); 28.3 min in data set [2] (10 mg/kg). Moreover, the “terminal half time (t½) of test item, times longer than the control peptide” value in data set [2] (single intravenous dosing) is “up to 4.8 times”.
For “AMVSEFLKQAWFIENEEQEYVQTLKSSKGGPGSAVSPYPTFNPSSDV [control peptide, reference compound]”, the half-life in data set [2] (1 mg/kg) was found to be 5.57 min; in data set [2] (3 mg/kg) it was 5.69 min; in data set [2] (10 mg/kg), 5.86 min.

B1: AnxA1: full length Annexin A1 protein (Homo sapiens, SEQ ID NO:1) (protein, listed as Homo Sapiens)
chain: MAMVSEFLKQAWFIENEEQEYVQTVKSSKGGPGSAVSPYPTFNPSSDVAALHKAIMVKGVDEATIIDILTKRNNAQRQQIKAAYLQETGKPLDETLKKALTGHLEEVVLALLKTPAQFDADELRAAMKGLGTDEDTLIEILASRTNKEIRDINRVYREELKRDLAKDITSDTSGDFRNALLSLAKGDRSEDFGVNEDLADSDARALYEAGERRKGTDVNVFNTILTTRSYPQLRRVFQKYTKYSKHDMNKVLDLELKGDIEKCLTAIVKCATSKPAFFAEKLHQAMKGVGTRHKALIRIMVSRSEIDMNDIKAFYQKMYGISLCQAILDETKGDYEKILVALCGGN
Turning to B1, in data set [3], the “Bodyweight, mean value per group” value amounted to 32.5 g and the “Liver Weight, mean value per group” value amounted to 2.0 g. Further, in data set [4], the “ALT (blood alanine aminotransferase)” value is listed as 100 u/L. For the same molecule, the “Relative expression levels of TNF-α with the mean expression in group B (vehicle) set to 1” value with TNF-α is listed as 1.17±023.
